Measurements as given in US10987360B2, “Hepatitis B core protein modulators” (Assembly Biosciences, Inc., priority 2016, dated 2021).
Like-named read-outs stand apart in the source and are kept apart here.

Legend:
[1] = tested on: HBV viral load in AD38 cells; test: Viral load production in AD38 cells, quantitative PCR of the core sequence in supernatant; type: cell-based; settings: 6 days incubation; for activity at 10 µM: Hepatitis B virus, 144 h
Procedure: (§1) Assay Measuring Activity of Compounds on Viral Production in and on Viability of AD38 Cells
(§2) AD38 cells grown in a 175 cm flask with “Growth Medium” (DMEM/F12 (1:1) (cat #SH30023.01, Hyclone, 1×Pen/step (cat #: 30-002-CL, Mediatech, Inc), 10% FBS (cat #: 101, Tissue Culture Biologics), 250 μg/mL G418 (cat #: 30-234-CR, Mediatech, Inc), 1 μg/mL Tetracycline (cat #: T3325, Teknova)) were detached with 0.25% trypsin. Tetracycline-free “treatment medium” (15 mL DMEM/F12 (1:1) (cat #SH30023.01, Hyclone, 1×Pen/step (cat #: 30-002-CL, Mediatech, Inc), with 2% FBS, Tet-system approved (cat #: 631106, Clontech) were then added to mix and spun at 1300 rpm for 5 min. Pelleted cells were then re-suspended/washed with 50 mL of 1×PBS 2 times and 10 mL Treatment Medium one time. AD38 cells were then re-suspended with 10 mL of Treatment Medium and counted. Wells of a collagen coated 96-well NUNC microtiter plate were seeded at 50,000/well in 180 μL of Treatment Medium, and 20 μL of in treatment media with either 10% DMSO (Control) or a 10× solution of compound in 10% DMSO was added. Plates were incubated for 6 days at 37° C.
Viral load production was assayed by quantitative PCR of the core sequence. Briefly, 5 μL of clarified supernatant was added to a PCR reaction mixture that contained forward primers HBV-f 5′-CTGTGCCTTGGGTGGCTTT-3′, Reverse primers HBV-r 5′-[…]-3′ and Fluorescent TaqMan™ Probes HBV-probe 5′-FAM/AGCTCCAAA/ZEN/[…]/3IABkFQ-3′ in Quanta Biosciences PerfeCTa® qPCR Toughmix®, and was subsequently on an Applied Biosystems VIIA7 in a final volume of 20 μL. The PCR mixture was incubated at 45° C. for 5 minutes, then 95° C. for 10 min, followed by 40 cycles of 10 seconds at 95° C. and 20 seconds at 60° C. Viral load was quantitated against known standards by using ViiA™ 7 Software. Viral load in the supernatant from wells with treated cells were compared against viral load in supernatant from DMSO control wells (≥3 per plate).

AD38 cells = test: Viability of AD38 cells, Promega CellTiter-Glo; type: cell-based; settings: 6 days incubation, controls being 100%; for AD38 Viability Normalized Result (CPAM/DMSO %) at 10 μM: Table 6, compounds of Group 4
Procedure: as §1, §2
At the end of compound treatment period cell viability was assessed using a Promega CellTiter-Glo protocol. All supernatant was removed the previously treated 96-well microtiter plate, and 50 μL Tetracycline-free treatment medium (DMEM/F12 (1:1), 1×Pen/step (cat #: 30-002-CL, Mediatech, Inc), with 2% FBS, Tet-system approved (cat #: 631106, Clontech), and 1% DMSO was added back to each well. Another 50 μL of CellTiter-Glo reagent solution (Promega, G7573) was then added at room temperature and the contents mixed for 2 minutes on an orbital shaker to induce cell lysis. This was followed by incubation at room temperature for 10 minutes to stabilize the luminescent signal. The luminescence was recorded for 0.2 seconds per well on a Tecan multimode platereader (Infinite M1000 pro). The luminescent signal from each well was normalized against that of untreated (DMSO) control wells. All results in Tables 3-6 were reported with percent viability (with controls being 100%).

[2] = Table 4, compounds of Group 2, read-out: AD38 Viral Load (%) (VL with cmpd/VL in DMSO control) at 10 μM
[3] = Table 6, compounds of Group 4, read-out: AD38 Viral Load (CpAM/DMSO %) at 10 μM

| Molecule | activity at 10 µM [1, 2] [%] | AD38 Viability Normalized Result (cmpd/DMSO %) at 10 μM (AD38 cells; Table 4, compounds of Group 2) [%] | further results |
| --- | --- | --- | --- |
| CC1=C(C)S(=O)(=O)c2ccc(C(=O)NCc3cnc(-c4ccc(C#N)cc4F)s3)cc2NC1=O [Compound C10-02] | 4 | 95 |  |
| CC1=C(C)S(=O)(=O)c2ccc(C(=O)NCc3cnc(-n4cccn4)s3)cc2NC1=O [Compound C10-04] | 1.8 | 92 |  |
| CC1=C(C)S(=O)(=O)c2ccc(C(=O)NCc3cnc(-c4ccc(OCCCN(C)C)cc4)s3)cc2NC1=O [Compound C10-05] | 11.3 | 90 |  |
| CC1=C(C)C(=O)Nc2cc(C(=O)NCc3cnc(C(F)(F)F)s3)ccc2S1 [Compound C12-01, 2,3-Dimethyl-4-oxo-N-((2-(trifluoromethyl)thiazol-5-yl)methyl)-4,5-dihydrobenzo[b][1,4]thiazepine-7-carboxamide] | 15.5 | 97 |  |
| CC1=C(C)C(=O)Nc2cc(C(=O)NCc3cnc(-c4ccc(C#N)cc4F)s3)ccc2S1 [Compound C12-02] | 21.4 | 99 |  |
| N#Cc1ccc(-c2ncc(CNC(=O)c3ccc4cc[nH]c4c3)s2)c(F)c1 [Compound C13-02, N-((2-(4-cyano-2-fluorophenyl)thiazol-5-yl)methyl)-1H-indole-6-carboxamide] |  |  | activity at 10 µM [1, 3]: 16.1%; AD38 Viability Normalized Result (CPAM/DMSO %) at 10 μM (AD38 cells): 105% |
| Cc1c[nH]c2cc(C(=O)NCc3cnc(C(F)(F)F)s3)ccc12 [Compound C14-01, 3-Methyl-N-((2-(trifluoromethyl)thiazol-5-yl)methyl)-1H-indole-6-carboxamide] |  |  | activity at 10 µM [1, 3]: 63%; AD38 Viability Normalized Result (CPAM/DMSO %) at 10 μM (AD38 cells): 113% |
| N#Cc1ccc(-c2ncc(CNC(=O)c3ccc4c(CC5CCOCC5)c[nH]c4c3)s2)c(F)c1 [Compound C18-02, N-((2-(4-cyano-2-fluorophenyl)thiazol-5-yl)methyl)-3-((tetrahydro-2H-pyran-4-yl)methyl)-1H-indole-6-carboxamide] |  |  | activity at 10 µM [1, 3]: 62.9%; AD38 Viability Normalized Result (CPAM/DMSO %) at 10 μM (AD38 cells): 106% |
| O=C(NCc1cnc(C(F)(F)F)s1)c1ccc2c(C3CCCCC3)c[nH]c2c1 [Compound C19-01, 3-Cyclohexyl-N-((2-(trifluoromethyl)thiazol-5-yl)methyl)-1H-indole-6-carboxamide] |  |  | activity at 10 µM [1, 3]: 30.8%; AD38 Viability Normalized Result (CPAM/DMSO %) at 10 μM (AD38 cells): 79% |
| Cc1[nH]c2cc(C(=O)NCc3cnc(C(F)(F)F)s3)ccc2c1C1CCCCC1 [Compound C20-01, 3-Cyclohexyl-2-methyl-N-((2-(trifluoromethyl)thiazol-5-yl)methyl)-1H-indole-6-carboxamide] |  |  | activity at 10 µM [1, 3]: 45.9%; AD38 Viability Normalized Result (CPAM/DMSO %) at 10 μM (AD38 cells): 47% |
| O=C1CC2CCCCN2c2ccc(C(=O)NCc3cnc(C(F)(F)F)s3)cc2N1 (stereo not shown) [Compound C21-01] | 45.9 | 39 |  |
| N#Cc1ccc(-c2ncc(CNC(=O)c3ccc4c(c3)NC(=O)CC3CCCCN43)s2)c(F)c1 (stereo not shown) [Compound C21-02] | 48.9 | 15 |  |
| Cc1c(C(=O)NCc2cnc(-c3ccc(OCCCN(C)C)cc3)s2)ccc2c1NC(=O)c1ccncc1S2(=O)=O [Compound C22-01] | 7.1 | 92 |  |
| Cc1c(C(=O)NCc2cnc(-n3cccn3)s2)ccc2c1NC(=O)c1ccncc1S2(=O)=O [Compound C22-02] | 0.9 | 85 |  |
| Cc1c(C(=O)NCc2cnc(-c3ccc(C#N)cc3F)s2)ccc2c1NC(=O)c1ccncc1S2(=O)=O [Compound C22-03] | 0.5 | 90 |  |
| N#Cc1ccc(-c2ncc(CNC(=O)c3ccc4c(c3)NC(=O)C3CCCN3S4(=O)=O)s2)c(F)c1 (stereo not shown) [Compound C24-02] | 43 | 100 |  |
| O=C(NCc1cnc(-n2cccn2)s1)c1ccc2c(c1)NC(=O)C1CCCN1S2(=O)=O (stereo not shown) [Compound C24-04] | 7.7 | 104 |  |
| N#Cc1ccc(-c2ncc(CNC(=O)c3ccc4c(c3)NC(=O)C3CCCCN3S4(=O)=O)s2)c(F)c1 (stereo not shown) [Compound C25-02] | 0.5 | 95 |  |
| O=C(NCc1cnc(-n2cccn2)s1)c1ccc2c(c1)NC(=O)C1CCCCN1S2(=O)=O (stereo not shown) [Compound C25-04] | 5.4 | 98 |  |
| O=C1NC2=C(CCN(C(=O)NCc3cnc(-n4cccn4)s3)C2)S(=O)(=O)c2ccccc21 [Compound C43-01, N-((2-(1H-pyrazol-1-yl)thiazol-5-yl)methyl)-10-oxo-3,4,10,11-tetrahydrobenzo[f]pyrido[4,3-b][1,4]thiazepine-2(1H)-carboxamide 5,5-dioxide] | 64.4 | 97 |  |
| CN(C)CCCOc1ccc(-c2ncc(CNC(=O)c3ccc4c(c3)NC(=O)c3ccncc3S4(=O)=O)s2)cc1 [Compound C46-01] | 8.5 | 101 |  |
| O=C(NCc1cnc(-n2cccn2)s1)c1ccc2c(c1)NC(=O)c1ccncc1S2(=O)=O [Compound C46-02] | 0.9 | 102 |  |
| ten-butyl (2-(4-(5-((5,5-dioxido-11-oxo-10,11-dihydrodibenzo[b,f][1,4]thiazepine-8-carboxamido) methyl) thiazol-2-yl) piperidin-1-yl)-2-oxoethyl) (methyl) carbamate [Compound 1035-A] |  |  | AD38 Viral Load (%) (VL with cmpd/VL in DMSO control) at 10 μM ([1]; Table 3, compounds of Group 1): 57.8%; AD38 Viability Normalized Result (cmpd/DMSO %) at 10 μM (AD38 cells; Table 3, compounds of Group 1): 102% |
